From ChEMBL document CHEMBL4049436, “Inhibitors of 15-Prostaglandin Dehydrogenase To Potentiate Tissue Repair” (J Med Chem, 2017)

Tests used:
Liver = assay: (§1) Half life in mouse liver S9 fractions at 2 uM in presence of NADPH by LC-MS/MS analysis; type: ADME, tissue-based; conditions: s9, 2 µM
Mus musculus [1] = assay: (§2) Cmax in CD1 mouse at 10 mg/kg, ip measured at 10 to 1440 mins post dose by LC-MS/MS analysis; type: ADME, organism-based; set-up: dose 10 mg/kg, route intraperitoneal; conditions: mouse, in vivo
Mus musculus [2] = assay: (§3) AUC in CD1 mouse at 10 mg/kg, ip measured at 10 to 1440 mins post dose by LC-MS/MS analysis; type: ADME, organism-based; conditions: mouse, in vivo
[3] = Plasma concentration in CD1 mouse at 10 mg/kg, ip measured at 3 hrs post dose by LC-MS/MS analysis; type: ADME, organism-based
[4] = as §1; type: ADME, tissue-based; conditions: liver S9 fraction
[5] = as §2; type: ADME, organism-based; set-up: dose 10 mg/kg, route intraperitoneal; conditions: CD1, mouse, in vivo
[6] = as §3; type: ADME, organism-based; conditions: CD1, mouse, in vivo
[7] = Half life in human liver S9 fraction at 2 uM by LC-MS/MS analysis; type: ADME, tissue-based
[8] = Plasma concentration in […] mouse at […], ip measured up to 3 hrs post dose by LC-MS/MS analysis; type: ADME, organism-based

SMILES | t1/2 (Liver) | Cmax (Mus musculus [1]) | AUC (Mus musculus [2]) | concentration at 3 h [3] | half-life at 2 µM [4] | Cmax [5] | AUC [6] | further results
CCCC[S+]([O-])c1sc2nc(-c3nccs3)cc(-c3ccc(OCCO)cc3)c2c1N (stereo not drawn) | 83 min | 13 µM | 959 µg·min/mL | 4200 nM | – | – | – | –
CCCC[S+]([O-])c1sc2nc(-c3cccs3)cc(-c3ccccc3)c2c1N (stereo not drawn) | – | – | – | – | 83 min | 1500 nM | 1380 ng·h/mL | –
COCC[S+]([O-])c1sc2nc(-c3nccs3)cc(-c3cnc(C)n3C)c2c1N (stereo not drawn) | > 240 min | 6.2 µM | 116 µg·min/mL | 60 nM | – | – | – | –
CCCC[S@@+]([O-])c1sc2nc(-c3nccs3)cc(-c3cnc(C)n3C)c2c1N | – | – | – | < 10 nM | 35 min | 3100 nM | 783 ng·h/mL | half-life at 2 µM [7]: > 240 min; concentration at 3 h [8]: < 10 nM
CCCC[S+]([O-])c1sc2nc(-c3nccs3)cc(-c3ccc(CO)cc3)c2c1N (stereo not drawn) | 13 min | – | – | – | – | – | – | –
COCCC[S+]([O-])c1sc2nc(-c3nccs3)cc(-c3cnc(C)n3C)c2c1N (stereo not drawn) | > 240 min | – | – | – | – | – | – | –
CCCC[S@@+]([O-])c1sc2nc(-c3cccs3)cc(-c3ccccc3)c2c1N | – | – | – | – | 13 min | 1600 nM | 717 ng·h/mL | –
CCCC[S@+]([O-])c1sc2nc(-c3nccs3)cc(-c3cnc(C)n3C)c2c1N | – | – | – | – | 289 min | – | – | half-life at 2 µM [7]: 224 min
CCCC[S+]([O-])c1sc2nc(-c3nccs3)cc(-c3ccc(COC(=O)CN(C)C)cc3)c2c1N (stereo not drawn) | 2 min | – | – | – | – | – | – | –
CCCC[S+]([O-])c1sc2nc(-c3nccs3)nc(-c3ccccc3)c2c1N (racemic) | – | 10.6 µM | 172 µg·min/mL | 60 nM | – | – | – | –
